Assay results taken from paper PMC6854942, “Simultaneous Determination of Three Bioactive Constituents from Bletilla striata by UPLC-MS/MS and Application of the Technique to Pharmacokinetic Analyses” (Evidence-based Complementary and Alternative Medicine : eCAM, 2019).
“And” between values parts separate entries of the source, which are not always exact repeats. Identical values can stand only once.

Columns and labels:
[1] = Pharmacokinetic study in rats after oral administration of B. striata extract (UPLC-MS/MS of plasma); assay type: in vivo, Sprague-Dawley rats; conditions: for bioavailability: rats, AUC0−t oral (22.2 g/kg extract) vs i.v. (1.64 g/kg extract), dose-corrected, read-out: Bioavailability (absolute); for MRT last: read-out: MRT0–t; for MRT inf: read-out: MRT0–∞
Method: (§1) An ACQUITY™ UPLC system (Waters Corp., Milford, MA, USA) with a conditioned autosampler and the ACQUITY™ UPLC BEH C18 analytical column (50 mm × 2.1 mm, internal diameter, 1.7 μm; Waters Corp., Milford, MA, USA) were used, to which a 6 mm precolumn filter unit was added. Analysis was carried out with an elution gradient of (A) acetonitrile and (B) water (both containing 0.1% formic acid) at a flow rate of 0.35 mL/min as follows: 0–0.5 min (10% A), 0.5–1.0 min (10–30% A), 1.0–2.0 min (30–35% A), 2.0–3.0 min (35–38% A), 3.0–4.0 min (38–90% A), and 4.0–5.0 min (90–10% A). The column and autosampler were maintained at 45°C and 15°C, respectively. The injection volume was 2 μL.
(§2) Mass spectrometric detection was performed using a Waters ACQUITY™ TQD triple quadrupole tandem mass spectrometer (Waters Corp., Manchester, UK) with an ESI interface in the positive ionization mode. The MS conditions were as follows: capillary voltage, 3.0 kV; desolvation gas flow, 650 L/h of nitrogen; and cone gas flow, 50 L/h of nitrogen. The collision gas (Ar) flow for MS/MS was maintained at 0.16 mL/min for collision-induced dissociation (CID). The source and desolvation gas temperatures were 120°C and 350°C, respectively. The multiple reaction monitoring (MRM) mode was used for quantification. All data were acquired using Masslynx™ V 4.1 Software and processed using Quanlyna™ V4.1 (Waters Corp., Millford, MA, USA).
(§3) Ten microliters of the IS solution (puerarin, 10 μg/mL in methanol) and 50 μL of 1% formic acid were added to 100 μL of rat plasma. Proteins were precipitated by addition of 400 μL of methanol, vortexing for 1 min, sonication for 5 min, followed by centrifugation at 13225 ×g for 10 min at 4°C, collecting the supernatant in a centrifuge tube, and drying at 37°C N2. Subsequently, 300 μL of the initial mobile phase was dissolved, sonicated for 5 min, and centrifuged at 5°C and 13225 ×g for 5 min, and the supernatant was used for analysis by UPLC-MS/MS.
(§4) The twelve Sprague-Dawley rats were housed under a controlled temperature regimen (22 ± 1°C) and relative humidity of 50–70%. The animals were maintained on a 12 h light/12 h dark cycle and had free access to food and water. They were fasted for 12 h before each experiment but allowed to drink freely during this time. Before the experiment, the B. striata extracts' intravenous and oral dosing solutions were prepared in physiological saline at concentrations of 1.03 g/mL and 2.78 g/mL, respectively. The 12 rats were randomly divided into two groups with 6 rats in each group. Group 1 underwent oral administration (22.2 g/kg), and group 2 underwent intravenous administration (1.64 g/kg). Blood samples (0.3 mL) were collected from the external right jugular veins of the rats into heparinized tubes at the designated time points (0.033, 0.083, 0.167, 0.33, 0.5, 1, 1.5, 2, 10, 24, 36, and 48 h for group 1 and 0.033, 0.083, 0.167, 0.25, 0.33, 0.5, 0.75, 1, 1.6, and 2 h for group 2). The blood samples were immediately centrifuged at 3000 ×g for 5 min. The plasma was removed and frozen at −20°C until further analysis.
(§5) Data are represented as mean± standard deviation. To determine the pharmacokinetic parameters, the concentration-time data were analyzed by DAS 2.0 software (Mathematical Pharmacology Professional Committee of China, Shanghai, China). Statistical analysis was performed using the statistical software package Statistical Product and Service Solutions (SPSS 11.5, USA). The absolute bioavailability was calculated using the following equation: F (%) = [AUC0 − t (oral) × dose (i.v.)]/[AUC0 − t (i.v.) × dose (oral)]) × 100.

[2] = Pharmacokinetic study in rats after intravenous administration of B. striata extract (UPLC-MS/MS of plasma); assay type: in vivo, Sprague-Dawley rats; conditions: intravenous administration of B. striata extract 1.64 g/kg, rat plasma, n = 6; for MRT last / MRT inf: Sprague-Dawley; for MRT last: read-out: MRT0–t; for MRT inf: read-out: MRT0–∞
Method: as §1, §2, §3, §4, §5

[3] = Stability of each compound in rat plasma (QC samples); assay type: in vitro ADME; conditions: n = 5
Method: The stability of each compound in rat plasma was evaluated using mixtures containing low, medium, or high concentrations of the QC sample (n = 5 for each concentration level). The stability of each compound was tested under three conditions: room temperature for 6 h, three freeze (−20°C)-thaw (room temperature) cycles, and storage at 4°C for 12 h.

[4] = Sprague-Dawley, oral administration of B. striata extract 22.2 g/kg, rat plasma, n = 6
[5] = oral administration of B. striata extract 22.2 g/kg, rat plasma, n = 6
[6] = 3 freeze-thaw cycles (−20°C / room temperature), low QC (spiked 0.029 / 0.022 / 0.015 μg/mL)
[7] = 3 freeze-thaw cycles, high QC (spiked 36.78 / 13.75 / 23.78 μg/mL)
[8] = 3 freeze-thaw cycles, medium QC (spiked 4.09 / 2.75 / 2.64 μg/mL)
[9] = 6 h, room temperature, high QC (spiked 36.78 / 13.75 / 23.78 μg/mL)
[10] = 6 h, room temperature, low QC (spiked 0.029 / 0.022 / 0.015 μg/mL)
[11] = 6 h, room temperature, medium QC (spiked 4.09 / 2.75 / 2.64 μg/mL)
[12] = 12 h, 4°C, high QC (spiked 36.78 / 13.75 / 23.78 μg/mL)
[13] = 12 h, 4°C, low QC (spiked 0.029 / 0.022 / 0.015 μg/mL)
[14] = 12 h, 4°C, medium QC (spiked 4.09 / 2.75 / 2.64 μg/mL)

bioavailability ([1]; Sprague-Dawley, rat, plasma) | Cmax [1, 4] [ng/mL] | MRT last [1, 4] [h] | MRT inf [1, 4] [h] | AUC0–t [1, 5] [h∗μg/mL] | AUC0–∞ [1, 5] [h∗μg/mL] | MRT last [2] [h] | MRT inf [2] [h] | AUC0–t [2] [h∗μg/mL] | AUC0–∞ [2] [h∗μg/mL] | Accuracy [3, 6] [%] | Calculated concentration [3, 6] [µg/mL] | Calculated concentration [3, 7] [µg/mL] | Calculated concentration [3, 8] [µg/mL] | Calculated concentration [3, 9] [µg/mL] | Accuracy [3, 10] [%] | Calculated concentration [3, 10] [µg/mL] | Calculated concentration [3, 11] [µg/mL] | Accuracy [3, 12] [%] | Calculated concentration [3, 12] [µg/mL] | SMILES | also measured
9.8% | 3060 ± 4820 | 12.4 ± 3.73 | 16 ± 5.34 | 20.56 ± 12.05 | 21.81 ± 12.04 | 0.68 ± 0.07 | 0.93 ± 0.18 | 15.47 ± 1.63 | 17.52 ± 2.66 | 100.3 | 0.022 ± 0.001 | 13.92 ± 0.57 | 2.74 ± 0.10 | 13.69 ± 0.39 | 100.2 | 0.022 ± 0.001 | 2.77 ± 0.08 | 96.1 | 13.22 ± 0.49 | CC(C)C[C@@](O)(CC(=O)O)C(=O)OCc1ccc(O[C@@H]2O[C@H](CO)[C@@H](O)[C@H](O)[C@H]2O)cc1 [Gymnoside I, gymnoside I] | T max [1, 5]: 1.44 ± 2.29 h; T max ([1]; oral administration of B. striata extract 22.2 g/kg, rat plasma, n = 6, listed as gymnoside I): 0.16 h; Accuracy [3, 13]: 95.4%; Calculated concentration [3, 13]: 0.021 ± 0.001 µg/mL; Accuracy [3, 14]: 97.5%; Calculated concentration [3, 14]: 2.68 ± 0.15 µg/mL
0.6% | 3300 ± 3600 | 5.62 ± 2.45 | 9.31 ± 2.57 | 3.10 ± 1.16 | 4.26 ± 1.93 | 0.36 ± 0.06 | 0.39 ± 0.07 | 36.71 ± 5.66 | 37.22 ± 5.99 | 100.7 | 0.015 ± 0.001 | 21.8 ± 0.94 | 2.62 ± 0.09 | 21.3 ± 0.94 | 106.7 | 0.016 ± 0.001 | 2.62 ± 0.09 | 92.3 | 21.95 ± 1.1 | CC(C)C[C@@](O)(CC(=O)OCc1ccc(O[C@@H]2O[C@H](CO)[C@@H](O)[C@H](O)[C@H]2O)cc1)C(=O)OCc1ccc(O[C@@H]2O[C@H](CO)[C@@H](O)[C@H](O)[C@H]2O)cc1 [Militarine, militarine] | T max [1, 5]: 0.16 ± 0.11 h; T max ([1]; oral administration of B. striata extract 22.2 g/kg, rat plasma, n = 6, listed as militarine): 1.44 h; Accuracy [3, 7]: 91.7%; Accuracy [3, 8]: 99.2%; Accuracy [3, 9]: 89.6%; Accuracy [3, 11]: 99.2%; Accuracy [3, 13]: 100.1%; Calculated concentration [3, 13]: 0.015 ± 0.001 µg/mL; Accuracy [3, 14]: 93.2%; Calculated concentration [3, 14]: 2.46 ± 0.28 µg/mL
87.5% and 87.4% | 23200 ± 5420 | 15.6 ± 3.63 | 19.7 ± 6.25 | 458.12 ± 150.74 | 498.36 ± 173.09 | 0.45 ± 0.08 | 0.51 ± 0.1 | 38.7 ± 4.72 | 39.62 ± 4.26 | 93.1 | 0.027 ± 0.001 | 34.17 ± 1.28 | 3.83 ± 0.08 | 34.95 ± 1.89 | 103.4 | 0.03 ± 0.001 | 3.77 ± 0.09 | 94.4 | 34.71 ± 1.95 | CC(C)C[C@@](O)(CC(=O)O)C(=O)O [α-Isobutylmalic acid] | Tmax ([1]; Sprague-Dawley, rat, plasma, po, 22.2 g/kg, oral administration of B. striata extract 22.2 g/kg, rat plasma, n = 6): 6.44 ± 2.33 h; Accuracy [3, 7]: 92.9%; Accuracy [3, 8]: 93.6%; Accuracy [3, 9]: 95.0%; Accuracy [3, 11]: 92.2%; Accuracy [3, 13]: 96.6%; Calculated concentration [3, 13]: 0.028 ± 0.002 µg/mL; Accuracy [3, 14]: 95.8%; Calculated concentration [3, 14]: 3.92 ± 0.11 µg/mL
